# Assay results reported in patent US7399825B2, “Synthetic peptide, inhibitor to DNA viruses” (priority 2003, dated 2008).
# No end group written: not given here.
# Columns and labels:
# herpes viruses = assay: Antiviral activity of synthetic Herp versions (13, 10 and 5 amino acids); assay type: cell-based; conditions: synthetic versions of Herp compared
# Procedure: ID. […] The sequencing and synthesizing was contracted out to the Protein Core Laboratory of Baylor College of Medicine, Houston, Tex.
# Infectivity Inhibition of HSV-1 and HSV-2 Viruses by Synthetic Herp: For comparison, Herpoxin and the synthetic Herps were tested in Vero cell cultures infected with HSV-1 or HSV-2 viruses. The cells were infected in serial concentrations from 10^2 to 10^8. Three wells were used for each concentration. After absorption of the virus the cultures were divided into three groups. Group one received medium containing PBS as a […] control, group two received medium containing 10 μg/ml of Herpoxin (natural Herp) and in the remaining group the medium was incorporated with 10 μg/ml synthetic Herp (Syn-Herp-10 amino acid (AA) version). The tests were read after six days and TCID/50 were calculated from CPE.
# uninfected cells = conditions: up to 200 μg/ml
Substance,antiviral activity / inhibition of herpes viruses (herpes viruses),effect on the respective uninfected cells (uninfected cells)
"Asn-Leu-Tyr-Gln-Phe (NLYQF; SYNTHESIZED. CORRESPONDS TO POSITIONS 1-5 OF SEQ. ID. NO. 1.) [SEQ. ID. NO. 3, synthetic Herp of 5 amino acids from the N-terminal]",good results,
"NLYQFKNMIQ [Syn Herp, Asn-Leu-Tyr-Gln-Phe-Lys-Asn-Met-Ile-Gln]",,no effect
NLYQFKNMIQQFL [SEQ. ID. NO. 1],good results,
